# Legend:
# [1] = tested on: Dermatitis circumscripta unilocularis; test: clinical treatment of dermatitis circumscripta unilocularis; type: in vivo, human; conditions: one patient
# Description: (§1) 17 patients, 11 men and 6 women, were treated with rhamnolipid (II). Among these, 12 patients were suffering from Psoriasis, 2 from Neurodermitis, 1 from Lichen ruber planus, 1 from Serborhoic dermatitis and one from Dermatitis circumscripta unilocularis eczematoides.
# [2] = molecular target: Dopamine D1 (human recombinant) (Homo sapiens, UniProt P21728); test: [3H] SCH23390 dopamine D1 receptor inhibition; type: binding; conditions: 0.5% DMSO
# [3] = tested on: Lichen ruber planus; test: clinical treatment of lichen ruber planus; type: in vivo, human; conditions: one patient
# Description: as §1
# [4] = tested on: B-cells isolated from mouse spleens; test: B-lymphocyte proliferation; type: cell-based; conditions: B-cell, 0.5% DMSO, read-out: % Stimulation (+)/Suppression (-)
# Description: Procedure: B-cells were isolated from mouse spleens using conventional procedures, and suspended in DMEM. 10^6 cells/ml were incubated overnight at 37° C. to assess stimulation (positive score, related to 1 ug/ml lipopolysaccharide) or suppression (negative score, related to blank control) of cell proliferation. The test substance was evaluated under these conditions at 10, 1, 0.1, 0.01 and 0.001 uM. After overnight incubation, 2 uCi [^3 H] thymidine incorporation was assessed by liquid scintillation counting.
# [5] = tested on: Candida albicans; test: minimum inhibitory concentration, Candida albicans; type: cell-based; conditions: in tested medium
# Excerpt: (§2) The Minimum inhibitory concentration (MIC) of Rhamnolipid II for Candida albicans, Escherichia coli, Staphylococcus aureus and Pseudomonas aeruginosa was >0.5% in tested medium.
# [6] = molecular target: papain (Carica papaya, UniProt P00784); test: enzyme inhibition, papain; type: biochemical
# Description: (§3) Rhamnolipid (II) was tested in vitro against a wide array of enzymes.
# (§4) All enzyme assays were done spectrophotometrically by computer linked automatic microplate reader (Labsystem Multiskan) and Diode Array spectrophotometer (Perkin Elmer).
# [7] = tested on: B-cells isolated from mouse spleen; test: B-lymphocyte proliferation + LPS; type: cell-based
# Description: Procedure: B-cells were isolated from mouse spleen using convnetional procedures, and suspended in DMEM. 10^6 cells/ml were incubated overnight at 37° C. in the presence of 10 ug/ml lipopolysaccharide (LPS) to assess stimulation (positive score, related to 1 ng/ml rat interleukin-5) or suppression (negative score, related to control) of cell proliferation. The test substance was evaluated under these conditions at 10, 1, 0.1, and 0.01 uM. After overnight incubation, 2 uCi [^3 H] thymidine was added to each well. Cells were harvested after an additional 48 hour incubation, and thymidine incorporation assessed by liquid scintillation counting.
# [8] = tested on: T-cells isolated from mouse thymus; test: T-lymphocyte proliferation + Con A; type: cell-based
# Description: Procedure: T-cells were isolated from mouse thymus using conventional procedures, and suspended in DMEM. 5×10^6 cells/ml are incubated overnight at 37° C. in the presence of 3 ug/ml Con A to assess stimulation (positive score, related to 10 U/ml rat interleukin-2) or suppression (negative score, related to control) of cell proliferation. Test substance was evaluated under these conditions at 10, 1, 0.1 and 0.01 uM. After overnight incubation, 2 uCi [^3 H] thymidine is added to each well. Cells were harvested after an additional 48 hour incubation, and thymidine incorporation assessed by liquid scintillation counting.
# [9] = tested on: trypsin; test: enzyme inhibition, trypsin; type: biochemical
# Description: as §3
# The following enzymes were inhibited at the various rhamnolipid concentrations indicated:
# as §4
# [10] = tested on: Escherichia coli; test: minimum inhibitory concentration, Escherichia coli; type: cell-based; conditions: in tested medium
# Excerpt: as §2
# [11] = tested on: elastase; test: enzyme inhibition, elastase; type: biochemical
# Description: as §3, §4
# [12] = tested on: polio I virus; type: cell-based; conditions: concentrations ≤100 ug/ml
# [13] = tested on: T-cells isolated from mouse thymus; test: T-lymphocyte proliferation; type: cell-based
# Description: Procedure: T-cells were isolated from mouse thymus using conventional procedures, and suspended in DMEM. 5×10^6 cells/ml were incubated overnight at 37° C. to assess stimulation (positive score, related to 3 ug/ml Concanavalin A) or suppression (negative score, related to blank control) of cell proliferation. Test substance was evaluated under these conditions at 10, 1, 0.1, 0.01, 0,001 uM. After overnight incubation, 2 uCi [^3 H] thymidine was added to each well. Cells were harvested after an additional 48 hour incubation, and thymidine incorporation assessed by liquid scintillation counting.
# [14] = tested on: blood count in mouse; conditions: in vivo
# Excerpt: Activity of Di-rhamnolipid on Blood Count in Mouse
# Blood count after application of di-rhamnolipid
# [15] = tested on: herpes simplex virus; test: effect on viruses, herpes simplex; type: cell-based; conditions: concentrations ≤100 ug/ml
# Description: Tests were performed according to D. A. Vanden Berghe et al., Inst. Pasteur 84,101 (1986). Rhamnolipid (II) was toxic for VERO cells in concentrations ≥200 ug/ml, and cytotoxic on MT4 cells in concentrations >169.40 ug/ml.
# [16] = tested on: rat platelet rich plasma; test: collagen induced platelet aggregation; type: cell-based; conditions: 0.1 mg/ml
# Description: Collagen induced platelet aggregation in rat platelet rich plasma was not affected by rhamnolipid (II) at 0.1 mg/ml.
# [17] = tested on: patients; conditions: human, in vivo
# Excerpt: Blood samples for lab tests were taken from all twelve patients on the first and last day of treatment.
# Dopamine D1 (human recombinant), sequence (P21728 whole entry): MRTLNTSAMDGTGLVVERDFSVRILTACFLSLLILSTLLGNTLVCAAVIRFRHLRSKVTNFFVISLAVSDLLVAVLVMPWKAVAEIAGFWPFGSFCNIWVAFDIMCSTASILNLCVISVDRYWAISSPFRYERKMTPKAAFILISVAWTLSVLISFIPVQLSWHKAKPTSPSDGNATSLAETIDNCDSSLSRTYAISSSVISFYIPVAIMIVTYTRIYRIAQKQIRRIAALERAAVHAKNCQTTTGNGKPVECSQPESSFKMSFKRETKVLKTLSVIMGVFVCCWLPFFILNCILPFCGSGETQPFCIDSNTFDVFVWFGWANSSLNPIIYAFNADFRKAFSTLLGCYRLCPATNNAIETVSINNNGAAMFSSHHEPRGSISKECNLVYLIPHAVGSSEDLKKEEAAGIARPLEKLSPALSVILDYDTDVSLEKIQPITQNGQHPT
# papain, sequence (P00784 134-345): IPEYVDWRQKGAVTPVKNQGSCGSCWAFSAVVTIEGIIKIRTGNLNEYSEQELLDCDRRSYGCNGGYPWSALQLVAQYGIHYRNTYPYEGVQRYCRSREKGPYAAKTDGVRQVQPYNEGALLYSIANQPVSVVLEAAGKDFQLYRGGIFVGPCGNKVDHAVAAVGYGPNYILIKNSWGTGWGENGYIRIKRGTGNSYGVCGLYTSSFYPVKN
smiles,measurement,setting,value
"CCCCCCCC(CC(=O)O)OC(=O)CC(CCCCCCC)O[C@@H]1O[C@@H](C)[C@H](O)[C@@H](O)[C@H]1O[C@@H]1O[C@@H](C)[C@H](O)[C@@H](O)[C@H]1O (stereo partly drawn) [Rhamnolipid (II), (alpha-L-rhamnopyranosyl-(1,2)alpha-L-rhamnopyranosyl)-3-hydroxydecanoyl-3-hydroxydecanoic acid]",cure,[1],completely cured
same,inhibition at 0.01 µM,[2]; 0.01 μM,8%
same,inhibition at 1 µM,[2]; 1 μM,8%
same,inhibition at 100 µM,[2]; 100 μM,101%
same,cure,[3],completely cured
same,activation at 0.001 µM,[4]; 0.001 uM,4%
same,activation at 0.01 µM,[4]; 0.01 uM,8%
same,activation at 0.1 µM,[4]; 0.1 uM,10%
same,activation at 1 µM,[4]; 1 uM,9%
same,activation at 10 µM,[4]; 10 uM,2%
same,Minimum inhibitory concentration (MIC),[5],> 0.5%
same,effect on enzyme,[6],no effect
same,B-cell proliferation,"[7]; 10 uM and 1 uM, added lipopolysaccharide",significant suppression
same,activation at 0.001 µM,"[7]; Mus musculus, B-cell, read-out: % Stimulation (+)/Suppression (-)",13%
same,activation at 0.01 µM,"[7]; Mus musculus, B-cell, 0.01 uM, LPS, 0.5% DMSO, read-out: % Stimulation (+)/Suppression (-)",-15%
same,activation at 0.1 µM,"[7]; Mus musculus, B-cell, 0.1 uM, LPS, 0.5% DMSO, read-out: % Stimulation (+)/Suppression (-)",-9%
same,activation at 1 µM,"[7]; Mus musculus, B-cell, 1 uM, LPS, 0.5% DMSO, read-out: % Stimulation (+)/Suppression (-)",-25%
same,activation at 10 µM,"[7]; Mus musculus, B-cell, 10 uM, LPS, 0.5% DMSO, read-out: % Stimulation (+)/Suppression (-)",-54%
same,T-cell proliferation,"[8]; 10 uM, with Con A",inhibited
same,in vitro T cell immunosuppression activity,"[8]; 10 uM, with ConA",T cell immunosuppression activity
same,activation at 0.001 µM,"[8]; Mus musculus, T-cell, read-out: % Stimulation (+)/Suppression (-)",4%
same,activation at 0.01 µM,"[8]; Mus musculus, T-cell, 0.01 uM, ConA, 0.5% DMSO, read-out: % Stimulation (+)/Suppression (-)",7%
same,activation at 0.1 µM,"[8]; Mus musculus, T-cell, 0.1 uM, ConA, 0.5% DMSO, read-out: % Stimulation (+)/Suppression (-)",7%
same,activation at 1 µM,"[8]; Mus musculus, T-cell, 1 uM, ConA, 0.5% DMSO, read-out: % Stimulation (+)/Suppression (-)",3%
same,activation at 10 µM,"[8]; Mus musculus, T-cell, 10 uM, ConA, 0.5% DMSO, read-out: % Stimulation (+)/Suppression (-)",-43%
same,concentration at which the enzyme was inhibited,[9],1 mg/mL
same,Minimum inhibitory concentration (MIC),[10],> 0.5%
same,effect on enzyme,[11],no effect
same,antiviral activity,[12],no activity
same,T-cell proliferation,"[13]; 10 uM, without Con A",inhibited
same,in vitro T cell immunosuppression activity,"[13]; 10 uM, without ConA",T cell immunosuppression activity
same,activation at 0.001 µM,"[13]; Mus musculus, T-cell, 0.001 uM, 0.5% DMSO, read-out: % Stimulation (+)/Suppression (-)",-2%
same,activation at 0.01 µM,"[13]; Mus musculus, T-cell, 0.01 uM, 0.5% DMSO, read-out: % Stimulation (+)/Suppression (-)",0%
same,activation at 0.1 µM,"[13]; Mus musculus, T-cell, 0.1 uM, 0.5% DMSO, read-out: % Stimulation (+)/Suppression (-)",1%
same,activation at 1 µM,"[13]; Mus musculus, T-cell, 1 uM, 0.5% DMSO, read-out: % Stimulation (+)/Suppression (-)",-3%
same,activation at 10 µM,"[13]; Mus musculus, T-cell, 10 uM, 0.5% DMSO, read-out: % Stimulation (+)/Suppression (-)",-24%
same,Lymphocyts,[14],53.40 +/- 11.14
same,lymphocytes,[14],56.50 +/- 12.02
same,nRBC,[14],0
same,change in lymphocytes,"[14]; iv, 7.5 mg/kg",decreased
same,change in neutrophils,"[14]; iv, 7.5 mg/kg",significantly increased
same,antiviral activity,[15],no activity
same,collagen induced platelet aggregation,[16],not affected
same,lab tests of blood samples,[17],no altered results of the tests were observed
